In EP2135864A1, “5-(4-methanesulfonyl-phenyl)-thiazole derivatives for the treatment of acute and chronic inflammatory diseases” (FAES FARMA, S.A., priority 2008, dated 2009):

How the values were obtained:
Format in all cases: cell-based, human
[1] = tested on: IL-8; assay: IL-8 production by PBMC from healthy volunteers, CBA; settings: 24 hours, mean ± standard error, n=13
Method: (§1) CBA protocol was followed according to the manufacturer's instructions. The election of microparticles was performed following the summary of Figure 1.
(§2) The acquisition on samples was performed with the BD FACS Array Bioanalyser System (FACSArray, Becton Dickinson, San José, CA, USA) and the analysis of the results was completed with the software FCAP Array (Becton Dickinson) in a PC computer.
(§3) Briefly, the experimental protocol consisted of a plate pre-washing out with Wash Buffer. After decantation, the mixture of capture microparticles was re-suspended in the vortex. Standards and samples were added in the adequate dilution. After permanent stirring incubation during 1 h, the PE detection reagent was added and incubated again during 2h at room temperature. After a washing-out, the acquisition was performed in the flow cytometer. Table 3. -Kit CBA Human Soluble Protein Multiplex Flex Set System.
The effect of compound 12 on the IL-8 production by the PBMC from healthy volunteers was further investigated, both in the presence and absence of LPS stimuli and monoclonal antibodies anti-CD3 and anti-CD28. PBMC (5 x 10^4 cells/well) from 13 healthy volunteers were cultured in duplicate in 200 µl of complete medium supplemented with the highest solvent concentration (10^-6 M), and 10^-6 M, 10^-7 M and 10^-8 M of compound 12, in the presence and absence of either LPS (10 µg/ml) or anti-CD3 (12.5 ng/ml) + anti-CD28 (1/3x10^5), during 24 hours. Culture supernatants were frozen at -20°C and IL-8 concentration was quantified by BD FACS Array Bioanalyser by using CBA Flex Set, specific to determine the IL-8 concentration, following the manufacturer instructions.

[2] = tested on: IFN-gamma; assay: IFN-gamma production by PBMC from patients with rheumatoid arthritis, CBA; settings: 24 hours, mean ± standard error, n=8
Method: as §1, §2, §3
PBMC (5 x 10^4 cells/well) from 8 patients with rheumatoid arthritis were cultured in duplicate 200 µl of complete medium supplement with the highest solvent concentration (10^-6 M), and 10^-6 M, 10^-7 M and 10^-8 M of compound 12, in the presence and absence either of LPS (10 µg/ml), or anti-CD3 (12.5 ng/ml) + anti-CD28 (1/3x10^5), during 24 hours. Culture supernatants were frozen at -20°C and IFN-gamma concentration was assessed by BD FACS Array Bioanalyser by using CBA Flex Set, specific to determine IFN-gamma concentration, following the manufacturer instructions.

[3] = tested on: IFN-gamma; assay: IFN-gamma production by PBMC from healthy volunteers, CBA; settings: 24 hours, mean ± standard error, n=13
Method: as §1, §2, §3
PBMC (5 x 10^4 cells per well) from 13 healthy volunteers were cultured in duplicate in 200 µl of complete medium supplemented with the highest solvent concentration (10^-6 M), and 10^-6 M, 10^-7 M and 10^-8 M of compound 12 in the presence or absence, either of LPS (10 µg/ml), or anti-CD3 (12.5 ng/ml) + anti-CD28 (1/3x10^5), during 24 hours. Culture supernatants were frozen at -20°C and the concentration of IFN-gamma was quantified by BD FACS Array Bioanalyser by using CBA Flex Set (Becton Dickinson), specific to determine the concentration of IFN-gamma, following the manufacturer instructions.

[4] = tested on: IL-8; assay: IL-8 production by PBMC from patients with rheumatoid arthritis, CBA; settings: 24 hours, mean ± standard error, n=8
Method: as §1, §2, §3
The effect on IL-8 production by PBMC from patients with rheumatoid arthritis was also studied. PBMC (5 x 10^4 cells per well) from 8 patients with rheumatoid arthritis were cultured in duplicate in 200 µl of complete medium supplemented with the highest solvent concentration (10^-6 M), and 10^-6 M, 10^-7 M and 10^-8 M of compound 12, in the presence and in the absence of either LPS (10 µg/ml) or anti-CD3 (12.5 ng/ml) + anti-CD28 (1/3x10^5), during 24 hours. Culture supernatants were frozen at -20°C and IL-8 concentration was quantified by BD FACS Array Bioanalyser by using CBA Flex Set, specific to determine IL-8 concentration, following the manufacturer instructions.

[5] = tested on: CD62L; assay: Shedding of CD62L in monocytes of PBMC, flow cytometry; settings: monocytes of PBMC from healthy volunteers, mean ± standard error, n=10, vehicle 65.34±8.06

## Cc1nc(OC2CCCC2)c(-c2ccc(S(C)(=O)=O)cc2)s1 [compound 12, 4-cyclopentyloxy-5-(4-methylsulfonyl-phenyl)-2-methylthiazole]
[1]; LPS (10µg/ml), 10^-6 M, vehicle 173877.36±8474.49, p 0.807
  IL-8 production by PMBC from healthy volunteers: 168467.15±9656.96 (0.807) pg/mL
[1]; LPS (10µg/ml), 10^-7 M, vehicle 173877.36±8474.49, p 0.249
  IL-8 production by PMBC from healthy volunteers: 162075.59±10258.41 (0.249) pg/mL
[1]; LPS (10µg/ml), 10^-8 M, vehicle 173877.36±8474.49, p 0.861
  IL-8 production by PMBC from healthy volunteers: 169609.11±9060.90 (0.861) pg/mL
[1]; anti-CD3 (12.5 ng/ml) + anti-CD28 (1/3x10^5), 10^-6 M, vehicle 107008.56±8351.21, p 0.311
  IL-8 production by PMBC from healthy volunteers: 99779.72±20000 (0.311) pg/mL
[1]; anti-CD3 (12.5 ng/ml) + anti-CD28 (1/3x10^5), 10^-7 M, vehicle 107008.56±8351.21, p 0.055
  IL-8 production by PMBC from healthy volunteers: 97968.61±10220.21 (0.055) pg/mL
[1]; anti-CD3 (12.5 ng/ml) + anti-CD28 (1/3x10^5), 10^-8 M, vehicle 107008.56±8351.21, p 0.028
  IL-8 production by PMBC from healthy volunteers: 92989.29±8463.47 (0.028) pg/mL
[1]; medium, 10^-6 M, vehicle 72814.17±10647.16, p 0.016
  IL-8 production by PMBC from healthy volunteers: 45634.31±6311.13 (0.016) pg/mL
[1]; medium, 10^-7 M, vehicle 72814.17±10647.16, p 0.006
  IL-8 production by PMBC from healthy volunteers: 53732.66±7952.75 (0.006) pg/mL
[1]; medium, 10^-8 M, vehicle 72814.17±10647.16, p 0.087
  IL-8 production by PMBC from healthy volunteers: 57773.60±6667.57 (0.087) pg/mL
[2]; LPS (10µg/ml), 10^-6 M, vehicle 461.14±85.00, p 0.484
  IFN-gamma production in PMBC from patients with rheumatoid arthritis: 205.26±46.00 (0.484) pg/mL
[2]; LPS (10µg/ml), 10^-7 M, vehicle 461.14±85.00, p 0.208
  IFN-gamma production in PMBC from patients with rheumatoid arthritis: 146.50±33.00 (0.208) pg/mL
[2]; LPS (10µg/ml), 10^-8 M, vehicle 461.14±85.00, p 0.889
  IFN-gamma production in PMBC from patients with rheumatoid arthritis: 248.73±35.00 (0.889) pg/mL
[2]; anti-CD3 (12.5 ng/ml) + anti-CD28 (1/3x10^5), 10^-6 M, vehicle 8406.18±1000.00, p 0.05
  IFN-gamma production in PMBC from patients with rheumatoid arthritis: 5115.27±600.00 (0.05) pg/mL
[2]; anti-CD3 (12.5 ng/ml) + anti-CD28 (1/3x10^5), 10^-7 M, vehicle 8406.18±1000.00, p 0.05
  IFN-gamma production in PMBC from patients with rheumatoid arthritis: 6411.71±700.00 (0.05) pg/mL
[2]; anti-CD3 (12.5 ng/ml) + anti-CD28 (1/3x10^5), 10^-8 M, vehicle 8406.18±1000.00, p 0.017
  IFN-gamma production in PMBC from patients with rheumatoid arthritis: 7122.07±950 (0.017) pg/mL
[2]; medium, 10^-6 M, vehicle 145.49±28.00, p 0.779
  IFN-gamma production in PMBC from patients with rheumatoid arthritis: 193.68±45.00 (0.779) pg/mL
[2]; medium, 10^-7 M, vehicle 145.49±28.00, p 0.208
  IFN-gamma production in PMBC from patients with rheumatoid arthritis: 203.72±50.00 (0.208) pg/mL
[2]; medium, 10^-8 M, vehicle 145.49±28.00, p 0.674
  IFN-gamma production in PMBC from patients with rheumatoid arthritis: 235.10±60.00 (0.674) pg/mL
[3]; LPS (10µg/ml), 10^-6 M, vehicle 860.42±105.00, p 0.011
  IFN-gamma production in PMBC from healthy volunteers: 649.61±120.00 (0.011) pg/mL
[3]; LPS (10µg/ml), 10^-7 M, vehicle 860.42±105.00, p 0.552
  IFN-gamma production in PMBC from healthy volunteers: 919.53±130.00 (0.552) pg/mL
[3]; LPS (10µg/ml), 10^-8 M, vehicle 860.42±105.00, p 0.382
  IFN-gamma production in PMBC from healthy volunteers: 1049.85±230.00 (0.382) pg/mL
[3]; anti-CD3 (12.5 ng/ml) + anti-CD28 (1/3x10^5), 10^-6 M, vehicle 11802.22±1300.00, p 0.019
  IFN-gamma production in PMBC from healthy volunteers: 7927.17±1003.00 (0.019) pg/mL
[3]; anti-CD3 (12.5 ng/ml) + anti-CD28 (1/3x10^5), 10^-7 M, vehicle 11802.22±1300.00, p 0.917
  IFN-gamma production in PMBC from healthy volunteers: 11552.08±1600.00 (0.917) pg/mL
[3]; anti-CD3 (12.5 ng/ml) + anti-CD28 (1/3x10^5), 10^-8 M, vehicle 11802.22±1300.00, p 0.196
  IFN-gamma production in PMBC from healthy volunteers: 10254.66±1500.00 (0.196) pg/mL
[3]; medium, 10^-6 M, vehicle 283.78±90.00, p 0.279
  IFN-gamma production in PMBC from healthy volunteers: 189.72±40.00 (0.279) pg/mL
[3]; medium, 10^-7 M, vehicle 283.78±90.00, p 0.807
  IFN-gamma production in PMBC from healthy volunteers: 296.28±90.00 (0.807) pg/mL
[3]; medium, 10^-8 M, vehicle 283.78±90.00, p 0.807
  IFN-gamma production in PMBC from healthy volunteers: 279.16±60.00 (0.807) pg/mL
[4]; LPS (10µg/ml), 10^-6 M, vehicle 150759.65±22966.06, p 0.012
  IL-8 production in PMBC from patients with rheumatoid arthritis: 185536.78±22000.00 (0.012) pg/mL
[4]; LPS (10µg/ml), 10^-7 M, vehicle 150759.65±22966.06, p 0.208
  IL-8 production in PMBC from patients with rheumatoid arthritis: 174156.23±13385.66 (0.208) pg/mL
[4]; LPS (10µg/ml), 10^-8 M, vehicle 150759.65±22966.06, p 0.012
  IL-8 production in PMBC from patients with rheumatoid arthritis: 184541.37±21500.00 (0.012) pg/mL
[4]; anti-CD3 (12.5 ng/ml) + anti-CD28 (1/3x10^5), 10^-6 M, vehicle 118017.97±21116.00, p 0.263
  IL-8 production in PMBC from patients with rheumatoid arthritis: 124576.09±14605.02 (0.263) pg/mL
[4]; anti-CD3 (12.5 ng/ml) + anti-CD28 (1/3x10^5), 10^-7 M, vehicle 118017.97±21116.00, p 0.889
  IL-8 production in PMBC from patients with rheumatoid arthritis: 109607.00±18310.15 (0.889) pg/mL
[4]; anti-CD3 (12.5 ng/ml) + anti-CD28 (1/3x10^5), 10^-8 M, vehicle 118017.97±21116.00, p 0.575
  IL-8 production in PMBC from patients with rheumatoid arthritis: 121587.88±16117.25 (0.575) pg/mL
[4]; medium, 10^-6 M, vehicle 57877.64±11143.52, p 0.208
  IL-8 production in PMBC from patients with rheumatoid arthritis: 98012.08±8395.97 (0.208) pg/mL
[4]; medium, 10^-7 M, vehicle 57877.64±11143.52, p 0.161
  IL-8 production in PMBC from patients with rheumatoid arthritis: 96498.50±10784.62 (0.161) pg/mL
[4]; medium, 10^-8 M, vehicle 57877.64±11143.52, p 0.123
  IL-8 production in PMBC from patients with rheumatoid arthritis: 93977.67±9247.38 (0.123) pg/mL
[5]; 10^-6 M, p 0.721
  Mean fluorescence intensity of surface CD62L expression in monocytes (MFI): 63.90±8.52 (0.721)
[5]; 10^-7 M, p 0.878
  Mean fluorescence intensity of surface CD62L expression in monocytes (MFI): 72.30±10.21 (0.878)
